In assay [1] the test system is C4-2B MDVR cells. Briefly: Seahorse XF mitochondrial function (OCR/ECAR). It counts as cell-based, human. Particulars: 5 uM, over 12 hours. Here is the method: Example 5 C: To determine mitochondrial function of cancer cells (here C4-2B MDVR), the cells are treated with vehicle, DZ (5 uM), DHA (5 uM), and DZ-003 (5 uM) over 12 hours, and the oxygen consumption rate (OCR) from respiration and extracellular acidification rate (ECAR) from glycolysis of the live cells is determined in a metabolic chamber in a 24-well plate format using a Seahorse XF analyzer (Seahorse XFe24, Agilent, Calif.). Reagents (drugs/controls) are added to the wells just before start of the recording at time 0, and the effect of the drugs on the basal mitochondrial function is recorded by the analyzer for about 12 hours (720 minutes). All reagents used are Agilent reagents. Cells are seeded and cultured in Seahorse XF RPMI Medium, pH 7.4. The seeding rate is 8×10^5 for the cells to reach about 90% confluency within about 24 hours when the analysis is started. The protocol is essentially performed as per the standard protocol of the manufacturer, removing the medium, washing the cells once with XF Real-Time ATP Rate Assay Medium, then starting the measurement as per the instrument's pre-programming and subsequent real-time measurements of OCAR/ECAR. Preliminary experiments indicate that the THAD as described herein may have an increased effect compared to DZ3a.

Assay [2] has as its system L858R/T790M EGFR versus wild-type EGFR. The note with it: inhibiting phosphorylation of EGFR in cell lines; cited from earlier work.
The test system of assay [3] is MDVR cells (Enzalutamide-resistant C4-2B prostate cancer cells). Briefly: MTT cell viability / IC50 assay, MDVR. The format is cell-based. The note with it: Homo sapiens. The procedure:
(§1) Cell culture: In the following examples, unless otherwise specified, all cell lines are purchased from American Type Culture Collection and cultured in American Type Culture Collection (ATCC)-recommended media, with fetal bovine serum (FBS) to a final concentration of 10% and 1× penicillin/streptomycin at 37° C. with 5% CO2 in a cell culture incubator, unless otherwise specified. Unless otherwise specified, culture is 2D. Where culture is 3D, low attachment plates are used, with the same media. C4-2B (ATCC® CRL-3315™, human prostate cancer cells of epithelial morphology) parental cell line and drug-resistant cells derived therefrom) are cultured in RPMI-1640 with 10% FBS. MDVR cells (an Enzalutamide-resistant variety of C4-2B prostate cancer cells formed as described below) are cultured as indicated for the parental C4-2B cells. Caki-1 cells (human clear cell renal cell carcinoma cells) are cultured in ATCC-formulated McCoy's 5a Medium Modified (ATCC Catalog No. 30-2007) with 10% FBS. PC3 cells (ATCC® CRL-1435™, a human prostate cancer cell line of epithelial morphology initiated from a bone metastasis of a grade IV prostatic adenocarcinoma) are cultured in F-12K with 10% FBS. 22RV1 Prostate Cancer (PC) cells (ATCC® CRL-2505™, a human prostate carcinoma cell line of epithelial morphology) are cultured in RPMI-1640 with 10% FBS. DU145 cells (ATCC® HTB-81™, a human cell line derived from a prostate-originating brain metastase, not detectably hormone sensitive, not expressing prostate antigen; forms adenocarcinoma grade II in nude mice) are cultured in ATCC-formulated Eagle's Minimum Essential Medium (EMEM, Catalog No. 30-2003). H446 cells (ATCC® HTB-171™, a human small cell carcinoma SC lung cancer (SCLC) cell line derived from a metastatic site) are cultured in RPMI-1640 with 10% FBS. H358 cells (ATCC® CRL-5807™, a human non-small cell lung cancer (NSCLC) cell line that expresses protein and RNA of SP-A, the major lung surfactant associated protein, and produces tumors in athymic nude mice) are cultured in RPMI-1640 Medium with 10% FBS. BxPC3 cells (ATCC® CRL-1687™, an adenocarcinoma-derived pancreatic cancer cell line that expresses pancreas cancer specific antigen and carcinoembryonic antigen and forms tumors in nude mice) are cultured in RPMI-1640 with 10% FBS.
Resistant prostate cancer cell lines MDVR and AbiR: MDVR cells are Enzalutamide-resistant cells, AbiR are Abiraterone acetate resistant cells, formed from parental C4-2B prostate cancer cells as follows. A cell assay is performed exposing cells cultured as described above to various drugs indicated below for 72 hours. Parental C4-2B cells are C4-2B non-resistant cells not previously exposed to cancer drugs. Drug-resistant C4-2B cells are created by prolonged exposure to the relevant drug, i.e. Enzalutamide for MDVR, and Abiraterone acetate for AbiR cells, at initially sub-lethal and gradually increasing concentrations until resistance is achieved.
Example 1: A cell assay is performed exposing cells cultured as described above to various drugs indicated below for 24 hours unless otherwise indicated. Each of the cell lines is treated either with a THAD (e.g. DZ-DHA-ether, MI-148-bis-DHA), or for comparison, with the DHA mono-ester “DZ-DHA”; alternatively/additionally, DZ1 and/or unconjugated DHA may serve as comparants. For each cell line, the IC50 is determined for each drug in concentrations from 0 to 100 μM. […] In the controls (not shown in the figures), the cells are exposed to DMSO (vehicle) for a final concentration that equals the highest concentration of the drug tested, to a maximum concentration less than 0.1% v/v. 4 hours before culture end/SDS addition, 10 μL MTT (3-(4,5-Dimethyl-2-thiazolyl)-2,5-diphenyl-2H-tetrazolium bromide, Sigma-Aldrich) is added to wells containing the cells. At the end of culture, 100 μl 10% SDS is added and then the plate containing the cells is placed in a 37° C. cell culture incubator for 8 hours. […]

Assay [4] concerns Caki-1 cells (human clear cell renal cell carcinoma cells). Put plainly: MTT cell viability / IC50 assay, Caki-1. The format is cell-based. Here is the method: as §1
Example 1: A cell assay is performed exposing cells cultured as described above to various drugs indicated below for 24 hours unless otherwise indicated. Each of the cell lines is treated either with a THAD (e.g. DZ-DHA-ether, MI-148-bis-DHA), or for comparison, with the DHA mono-ester “DZ-DHA”; alternatively/additionally, DZ1 and/or unconjugated DHA may serve as comparants. For each cell line, the IC50 is determined for each drug in concentrations from 0 to 100 μM. […] In the controls (not shown in the figures), the cells are exposed to DMSO (vehicle) for a final concentration that equals the highest concentration of the drug tested, to a maximum concentration less than 0.1% v/v. 4 hours before culture end/SDS addition, 10 μL MTT (3-(4,5-Dimethyl-2-thiazolyl)-2,5-diphenyl-2H-tetrazolium bromide, Sigma-Aldrich) is added to wells containing the cells. At the end of culture, 100 μl 10% SDS is added and then the plate containing the cells is placed in a 37° C. cell culture incubator for 8 hours. The absorbance density of the supernatant is read on a 96-well microplate reader at wavelength 595 nm. The results of Caki-1 and MDRV are indicated in the table below along with preliminary results for further cancer cell lines (including, e.g., C4-2B, Abi-R, PC3, 22Rv1, DU145, H358, H446, BxPC3), and the corresponding curves are shown in FIG. 2A (Caki-1) and FIG. 2B (MDVR).

Setting [5] is: ENZ-resistant C4-2B cells (MDVR), unit inferred, read-out: IC50 (FIG. 2B description).
Where [6] appears, read: MDVR, 24 hours, relative IC50, read-out: IC50.
The mark [7] stands for this setting: Caki-1, 24 hours, relative IC50, read-out: IC50.
Where [8] appears, read: Caki-1, unit inferred, read-out: IC50 (FIG. 2A description).

Structures are written as SMILES. Where two headings read alike, the source gives them in different places.

Broadly, the IC50 is the point on the concentration scale where inhibition reaches its midpoint.

As to `CC1(C)C(/C=C/C2=C(Cl)C(=C/C=C3/N(CCCCCC(=O)O)c4ccccc4C3(C)C)/CCC2)=[N+](CCCCS(=O)(=O)[O-])c2ccccc21` [DZ1], the “lowering of OCR (in words)” value in assay [1] is reported as “drop much less”.

`C=CC(=O)Nc1cc(Nc2nccc(-c3cn(C)c4ccccc34)n2)c(OC)cc1N(C)CCN(C)C` [Osimertinib]: the “potency against L858R/T790M relative to wild-type EGFR” value in assay [2] is given as 100-200 times.

Consider `C[C@@H]1CC[C@H]2[C@@H](C)C(OC(=O)CCCCCN3/C(=C/C=C4\CCCC(/C=C/C5=[N+](CCCCCC(=O)OC6O[C@@H]7O[C@]8(C)CC[C@H]9[C@H](C)CC[C@@H]([C@H]6C)[C@@]79OO8)c6ccccc6C5(C)C)=C4Cl)C(C)(C)c4ccccc43)O[C@@H]3O[C@]4(C)CC[C@@H]1[C@]32OO4` (stereo partly shown) [MHI-148-bis-DHA], for which the concentration for half-maximal inhibition (IC50) in assay [3] (setting [5]) is < 1000 nM; in assay [3] (setting [6]), 860 nM; in assay [4] (setting [7]), 710 nM; in assay [4] (setting [8]), 500 to 1500 nM.

With `C[C@@H]1CC[C@H]2[C@@H](C)C(OCCNC(=O)CCCCCN3/C(=C/C=C4\CCCC(/C=C/C5=[N+](CCCCS(=O)(=O)[O-])c6ccccc6C5(C)C)=C4Cl)C(C)(C)c4ccccc43)O[C@@H]3O[C@]4(C)CC[C@@H]1[C@]32OO4` (stereo partly shown) [DZ-DHA-ether], the concentration for half-maximal inhibition (IC50) is 3470 nM in assay [3] (setting [5]), < 3470 nM in assay [3] (setting [6]), 1420 nM in assay [4] (setting [7]) and 500 to 1500 nM in assay [4] (setting [8]).

These data come from patent publication US20230226198A1, “Artemisinin Derivatives” (DA ZEN THERANOSTICS, INC., priority 2019, published 2023).
